Converted amounts (≈) assume the structure as drawn.
Experiments:
Enterococcus faecalis [1] = test: Minimum inhibitory concentration against vancomycin-sensitive Enterococcus faecalis in the presence of 30% bovine serum (n=3) (range = 8-4); type: functional
Enterococcus faecium [2] = test: Minimum inhibitory concentration against vancomycin-A Enterococcus faecium in the presence of 30% bovine serum in the presence of 30% bovine serum (n=1); type: functional
Enterococcus faecalis [3] = test: Minimum inhibitory concentration against vancomycin-A Enterococcus faecalis in the presence of 30% bovine serum (n=4); type: functional
Enterococcus faecium [4] = test: Minimum inhibitory concentration against vancomycin-sensitive Enterococcus faecium in the presence of 30% bovine serum (n=1); type: functional
Staphylococcus aureus [5] = test: Minimum inhibitory concentration against methicillin-resistant Staphylococcus aureus
Staphylococcus aureus [6] = test: Minimum inhibitory concentration against methicillin-sensitive Staphylococcus aureus
Enterococcus faecalis [7] = test: Minimum inhibitory concentration against vancomycin-A Enterococcus faecalis in the presence of 30% bovine serum(n=4) (range = 64-128mg/L); type: functional
Enterococcus faecium [8] = test: Minimum inhibitory concentration against vancomycin-A Enterococcus faecium in the presence of 30% bovine serum (n=1) (range = 64>128mg/L); type: functional
[9] = system: Staphylococcus epidermidis; test: Minimum inhibitory concentration against methicillin-sensitive Staphylococcus epidermidis in the presence of 30% bovine serum; type: functional
[10] = system: Staphylococcus haemolyticus; test: Minimum inhibitory concentration against Staphylococcus haemolyticus in the presence of 30% bovine serum; type: functional
[11] = system: Staphylococcus epidermidis; test: Minimum inhibitory concentration against methicillin-resistant Staphylococcus epidermidis in the presence of 30% bovine serum; type: functional
Enterococcus faecium [12] = test: Minimum inhibitory concentration against vancomycin-sensitive Enterococcus faecium in the presence of 30% bovine serum(n=1); type: functional
Enterococcus faecalis [13] = test: Minimum inhibitory concentration against vancomycin-sensitive Enterococcus faecalis in the presence of 30% bovine serum(n=3); type: functional
Enterococcus faecium [14] = test: Minimum inhibitory concentration against vancomycin-A Enterococcus faecium in the presence of 30% bovine serum (n=1) (range = 4>128mg/L); type: functional
Enterococcus faecalis [15] = test: Minimum inhibitory concentration against vancomycin-sensitive Enterococcus faecalis in the presence of 30% bovine serum(n=3)(range = 0.25-0.5mg/l); type: functional
Enterococcus faecalis [16] = test: Minimum inhibitory concentration against vancomycin-A Enterococcus faecalis in the presence of 30% bovine serum(n=4) (range = 128>128 mg/L); type: functional
Enterococcus faecium [17] = test: Minimum inhibitory concentration against vancomycin-A Enterococcus faecium in the presence of 30% bovine serum (n=1) (range = 0.5-16mg/l); type: functional
Enterococcus faecalis [18] = test: Minimum inhibitory concentration against vancomycin-sensitive Enterococcus faecalis in the presence of 30% bovine serum (n=3) (range = <0.125-0.25); type: functional
Enterococcus faecalis [19] = test: Minimum inhibitory concentration against vancomycin-sensitive Enterococcus faecalis in the presence of 30% bovine serum(n=3)(range = 0.5-1 mg/l); type: functional
Enterococcus faecium [20] = test: Minimum inhibitory concentration against vancomycin-A Enterococcus faecium in the presence of 30% bovine serum (n=1); type: functional
Enterococcus faecium [21] = test: Minimum inhibitory concentration against vancomycin-A Enterococcus faecium in the presence of 30% bovine serum (n=1) (range = 2-128mg/L); type: functional
Enterococcus faecalis [22] = test: Minimum inhibitory concentration against vancomycin-A Enterococcus faecalis (n=4) (range = 4-128mg/L)
Enterococcus faecalis [23] = test: Minimum inhibitory concentration against vancomycin-A Enterococcus faecalis (n=4) (range = 0.25-8mg/L)

SMILES | MIC (Enterococcus faecalis [3]) [µg/mL] | MIC (Staphylococcus aureus [5]) [µg/mL] | MIC (Staphylococcus aureus [6]) [µg/mL] | MIC (Enterococcus faecium [8]) [µg/mL] | MIC [9] [µg/mL] | MIC [10] [µg/mL] | MIC [11] [µg/mL] | MIC (Enterococcus faecium [12]) [µg/mL] | MIC (Enterococcus faecalis [13]) [µg/mL] | MIC (Enterococcus faecalis [16]) [µg/mL] | other results
CN[C@H]1C(=O)N[C@@H]2Cc3ccc(cc3)Oc3cc4cc(c3O[C@@H]3OC(C(=O)O)C(O)[C@H](O)C3N)Oc3ccc(cc3Cl)[C@@H](O)C3NC(=O)[C@H](NC(=O)[C@@H]4NC(=O)[C@@H](NC2=O)c2cc(cc(O)c2Cl)Oc2cc1ccc2O)c1ccc(O)c(c1)-c1c(O[C@H]2O[C@H](CO)[C@@H](O)[C@H](O)[C@@H]2O)cc(O)cc1[C@@H](C(=O)O)NC3=O (stereo not given in full) | > 128 | 16 (≈ 10.3 µM) | 16 (≈ 10.3 µM) | – | – | – | – | – | – | – | MIC (Enterococcus faecalis [1]): 8 µg/mL; MIC (Enterococcus faecium [2]): > 128 µg/mL; MIC (Enterococcus faecium [4]): 8 µg/mL
CCCCc1ccc(CNC2[C@H](Oc3c4cc5cc3Oc3ccc(cc3Cl)[C@@H](O)C3NC(=O)[C@H](NC(=O)[C@@H]5NC(=O)[C@H]5NC(=O)[C@@H](Cc6ccc(cc6)O4)NC(=O)[C@H](NC)c4ccc(O)c(c4)Oc4cc(O)c(Cl)c5c4)c4ccc(O)c(c4)-c4c(O[C@H]5O[C@H](CO)[C@@H](O)[C@H](O)[C@@H]5O)cc(O)cc4[C@@H](C(=O)O)NC3=O)OC(C(=O)O)C(O)[C@@H]2O)cc1 (stereo not given in full) | – | 0.25 (≈ 0.147 µM) | 0.25 (≈ 0.147 µM) | > 128 | 0.25 | 16 | 4 | 2 | < 0.125 | – | MIC (Enterococcus faecalis [7]): 128 µg/mL
CCCCc1ccc(CN(C)[C@H]2C(=O)N[C@@H]3Cc4ccc(cc4)Oc4cc5cc(c4O[C@@H]4OC(C(=O)O)C(O)[C@H](O)C4N)Oc4ccc(cc4Cl)[C@@H](O)C4NC(=O)[C@H](NC(=O)[C@@H]5NC(=O)[C@@H](NC3=O)c3cc(cc(O)c3Cl)Oc3cc2ccc3O)c2ccc(O)c(c2)-c2c(O[C@H]3O[C@H](CO)[C@@H](O)[C@H](O)[C@@H]3O)cc(O)cc2[C@@H](C(=O)O)NC4=O)cc1 (stereo not given in full) | – | 1 (≈ 0.589 µM) | 1 (≈ 0.589 µM) | – | 1 | 32 | 8 | 0.5 | – | 128 | MIC (Enterococcus faecium [14]): > 128 µg/mL; MIC (Enterococcus faecalis [15]): 0.5 µg/mL
CN(C)CCCNC(=O)C1O[C@@H](Oc2c3cc4cc2Oc2ccc(cc2Cl)[C@@H](O)C2NC(=O)[C@H](NC(=O)[C@@H]4NC(=O)[C@H]4NC(=O)[C@@H](Cc5ccc(cc5)O3)NC(=O)[C@H](N(C)Cc3ccc(C(=O)Oc5ccccc5)cc3)c3ccc(O)c(c3)Oc3cc(O)c(Cl)c4c3)c3ccc(O)c(c3)-c3c(O[C@H]4O[C@H](CO)[C@@H](O)[C@H](O)[C@@H]4O)cc(O)cc3[C@@H](C(=O)NCCCN(C)C)NC2=O)C(NCc2ccc(C(=O)Oc3ccccc3)cc2)[C@@H](O)C1O (stereo not given in full) | – | 1 (≈ 0.467 µM) | 1 (≈ 0.467 µM) | – | 0.25 | 2 | 2 | 0.5 | – | – | MIC (Enterococcus faecium [17]): > 16 µg/mL; MIC (Enterococcus faecalis [18]): 0.25 µg/mL
CCCCOc1ccc(CNC2[C@H](Oc3c4cc5cc3Oc3ccc(cc3Cl)[C@@H](O)C3NC(=O)[C@H](NC(=O)[C@@H]5NC(=O)[C@H]5NC(=O)[C@@H](Cc6ccc(cc6)O4)NC(=O)[C@H](NC)c4ccc(O)c(c4)Oc4cc(O)c(Cl)c5c4)c4ccc(O)c(c4)-c4c(O[C@H]5O[C@H](CO)[C@@H](O)[C@H](O)[C@@H]5O)cc(O)cc4[C@@H](C(=O)O)NC3=O)OC(C(=O)O)C(O)[C@@H]2O)cc1 (stereo not given in full) | 128 | 1 (≈ 0.584 µM) | 1 (≈ 0.584 µM) | > 128 | 1 | 32 | 16 | 1 | – | – | MIC (Enterococcus faecalis [19]): 1 µg/mL
CN(Cc1ccc(-c2ccccc2)cc1)[C@H]1C(=O)N[C@@H]2Cc3ccc(cc3)Oc3cc4cc(c3O[C@@H]3OC(C(=O)O)C(O)[C@H](O)C3N)Oc3ccc(cc3Cl)[C@@H](O)C3NC(=O)[C@H](NC(=O)[C@@H]4NC(=O)[C@@H](NC2=O)c2cc(cc(O)c2Cl)Oc2cc1ccc2O)c1ccc(O)c(c1)-c1c(O[C@H]2O[C@H](CO)[C@@H](O)[C@H](O)[C@@H]2O)cc(O)cc1[C@@H](C(=O)O)NC3=O (stereo not given in full) | – | 1 (≈ 0.583 µM) | 1 (≈ 0.583 µM) | – | 2 | 32 | 16 | 0.5 | – | 128 | MIC (Enterococcus faecium [14]): > 128 µg/mL; MIC (Enterococcus faecalis [15]): 0.5 µg/mL
CN[C@H]1C(=O)N[C@@H]2Cc3ccc(cc3)Oc3cc4cc(c3O[C@@H]3OC(C(=O)NCCCN(C)C)C(O)[C@H](O)C3N)Oc3ccc(cc3Cl)[C@@H](O)C3NC(=O)[C@H](NC(=O)[C@@H]4NC(=O)[C@@H](NC2=O)c2cc(cc(O)c2Cl)Oc2cc1ccc2O)c1ccc(O)c(c1)-c1c(O[C@H]2O[C@H](CO)[C@@H](O)[C@H](O)[C@@H]2O)cc(O)cc1[C@@H](C(=O)NCCCN(C)C)NC3=O (stereo not given in full) | – | 2 (≈ 1.16 µM) | 1 (≈ 0.582 µM) | – | 1 | 0.05 | – | 1 | 1 | 128 | MIC (Enterococcus faecium [20]): > 128 µg/mL
CN(Cc1ccc2ccccc2c1)[C@H]1C(=O)N[C@@H]2Cc3ccc(cc3)Oc3cc4cc(c3O[C@@H]3OC(C(=O)O)C(O)[C@H](O)C3NCc3ccc5ccccc5c3)Oc3ccc(cc3Cl)[C@@H](O)C3NC(=O)[C@H](NC(=O)[C@@H]4NC(=O)[C@@H](NC2=O)c2cc(cc(O)c2Cl)Oc2cc1ccc2O)c1ccc(O)c(c1)-c1c(O[C@H]2O[C@H](CO)[C@@H](O)[C@H](O)[C@@H]2O)cc(O)cc1[C@@H](C(=O)O)NC3=O (stereo not given in full) | – | 1 (≈ 0.546 µM) | 2 (≈ 1.09 µM) | – | 2 | 16 | 16 | 2 | < 0.125 | – | MIC (Enterococcus faecium [21]): > 128 µg/mL; MIC (Enterococcus faecalis [22]): 128 µg/mL (≈ 69.9 µM)
CCCCc1ccc(CNC2[C@H](Oc3c4cc5cc3Oc3ccc(cc3Cl)[C@@H](O)C3NC(=O)[C@H](NC(=O)[C@@H]5NC(=O)[C@H]5NC(=O)[C@@H](Cc6ccc(cc6)O4)NC(=O)[C@H](N(C)Cc4ccc(CCCC)cc4)c4ccc(O)c(c4)Oc4cc(O)c(Cl)c5c4)c4ccc(O)c(c4)-c4c(O[C@H]5O[C@H](CO)[C@@H](O)[C@H](O)[C@@H]5O)cc(O)cc4[C@@H](C(=O)NCCCN(C)C)NC3=O)OC(C(=O)NCCCN(C)C)C(O)[C@@H]2O)cc1 (stereo not given in full) | – | 2 (≈ 0.995 µM) | 1 (≈ 0.497 µM) | – | 0.25 | 2 | 2 | 0.5 | – | – | MIC (Enterococcus faecium [17]): 16 µg/mL; MIC (Enterococcus faecalis [18]): < 0.125 µg/mL; MIC (Enterococcus faecalis [23]): 8 µg/mL (≈ 3.98 µM)
CN[C@H]1C(=O)N[C@@H]2Cc3ccc(cc3)Oc3cc4cc(c3O[C@@H]3OC(C(=O)O)C(O)[C@H](O)C3NCc3ccc5ccccc5c3)Oc3ccc(cc3Cl)[C@@H](O)C3NC(=O)[C@H](NC(=O)[C@@H]4NC(=O)[C@@H](NC2=O)c2cc(cc(O)c2Cl)Oc2cc1ccc2O)c1ccc(O)c(c1)-c1c(O[C@H]2O[C@H](CO)[C@@H](O)[C@H](O)[C@@H]2O)cc(O)cc1[C@@H](C(=O)O)NC3=O (stereo not given in full) | 128 | 1 (≈ 0.592 µM) | 2 (≈ 1.18 µM) | > 128 | 2 | 32 | 16 | 2 | – | – | MIC (Enterococcus faecalis [19]): 1 µg/mL
